One data set deals with Erythrocyte. The data set is described as follows: Hemolytic activity against human RBC assessed as concentration required to cause >20% hemolysis. The data set is classed as ADME, cell-based.
The test system of the next data set is Escherichia coli. The data set is described as follows: Antimicrobial activity against Escherichia coli MC4100 assessed as inhibition of microbial growth. The data set is classed as functional.
Data set [1] deals with Staphylococcus aureus. The data set is described as follows: Antimicrobial activity against methicillin-susceptible Staphylococcus aureus SH1000 assessed as inhibition of microbial growth. The data set is classed as functional.
The subject of the next data set is Pseudomonas aeruginosa. The data set can be described thus: Antimicrobial activity against Pseudomonas aeruginosa PAO1 assessed as inhibition of microbial growth. The data set is classed as functional.
The test system of data set [2] is Staphylococcus aureus. The data set can be described thus: microbe, parasite or virus in culture. The data set is classed as functional. To be noted: ATCC 33591.
Description: Antimicrobial activity against hospital acquired methicillin-resistant Staphylococcus aureus ATCC 33591 assessed as inhibition of microbial growth
Another data set relates to Enterococcus faecalis. The data set can be described thus: Antimicrobial activity against Enterococcus faecalis OG1RF assessed as inhibition of microbial growth. The data set is classed as functional.
Data set [3] concerns Staphylococcus aureus. The data set is described as follows: Antimicrobial activity against community acquired methicillin-resistant Staphylococcus aureus USA300 assessed as inhibition of microbial growth. The data set is classed as functional.

`C[N+]1(CCCCCCCCCC[N+]2(C)CCCC2)CCCC1.[Br-].[Br-]`: the HC20 with Erythrocyte stood at 125 µM. In addition, the MIC in the data set on Escherichia coli, in the data set with Staphylococcus aureus [1], in the data set on Pseudomonas aeruginosa, with Staphylococcus aureus [2], with Enterococcus faecalis and in the data set with Staphylococcus aureus [3] was > 250 µM throughout.
As for `CCCCCCCCCCCCCCCC[N+]1(C)CCCC1.[Br-]`, the HC20 in the data set with Erythrocyte came to 16 µM. In addition, the MIC is 125 µM in the data set on Escherichia coli; 4 µM in the data set with Staphylococcus aureus [1]; > 250 µM in the data set on Pseudomonas aeruginosa; 8 µM against Staphylococcus aureus [2]; > 250 µM in the data set with Enterococcus faecalis; 2 µM in the data set on Staphylococcus aureus [3].
Regarding `CCCCCCCCCCCCCC[N+]1(C)CCCC1.[Br-]`, the HC20 in the data set on Erythrocyte stood at 32 µM. The MIC in the data set with Escherichia coli was 250 µM; in the data set on Staphylococcus aureus [1] it was 4 µM; in the data set with Pseudomonas aeruginosa, > 250 µM; in the data set on Staphylococcus aureus [2], 16 µM; in the data set on Enterococcus faecalis, > 250 µM; in the data set with Staphylococcus aureus [3], 8 µM.
As for `C[N+]1(CCCCCCCCCCCC[N+]2(C)CCCC2)CCCC1.[Br-].[Br-]`, the HC20 with Erythrocyte was determined as 125 µM. In addition, the MIC in the data set on Escherichia coli, in the data set on Staphylococcus aureus [1], with Pseudomonas aeruginosa, in the data set on Staphylococcus aureus [2], with Enterococcus faecalis and in the data set on Staphylococcus aureus [3] was > 250 µM throughout.
In the case of `CCCCCCCCCCCC[N+]1(C)CCCC1.[Br-]`, in the data set on Erythrocyte, the HC20 stood at 125 µM. Further, the MIC was > 250 µM in the data set with Escherichia coli; 32 µM in the data set on Staphylococcus aureus [1]; > 250 µM in the data set with Pseudomonas aeruginosa; 125 µM with Staphylococcus aureus [2]; > 250 µM with Enterococcus faecalis; 32 µM in the data set with Staphylococcus aureus [3].
For `CCCCCCCCCCCCCCCC[n+]1ccccc1.[Cl-]`, in the data set on Erythrocyte, the HC20 came to 8 µM.
As to `C(CCCC[S+]1CCCC1)CCC[S+]1CCCC1.[I-].[I-]`, the HC20 in the data set with Erythrocyte stood at 125 µM. Also, the MIC in the data set on Escherichia coli, in the data set on Staphylococcus aureus [1], in the data set with Pseudomonas aeruginosa, in the data set on Staphylococcus aureus [2], with Enterococcus faecalis and with Staphylococcus aureus [3] was > 250 µM each time.
Take `CCCCCCCCCCCC[S+]1CCCC1.[I-]`: the HC20 with Erythrocyte was determined as 125 µM. Besides, the MIC with Escherichia coli is > 250 µM; in the data set on Staphylococcus aureus [1] it was 16 µM; with Pseudomonas aeruginosa, > 250 µM; in the data set on Staphylococcus aureus [2], 125 µM; in the data set with Enterococcus faecalis it was > 250 µM; in the data set on Staphylococcus aureus [3], 16 µM.
Regarding `CCCCCCCCCCCCCC[S+]1CCCC1.[I-]`, the HC20 in the data set on Erythrocyte worked out at 16 µM. Also, the MIC with Escherichia coli was 250 µM; with Staphylococcus aureus [1], 4 µM; in the data set with Pseudomonas aeruginosa, > 250 µM; against Staphylococcus aureus [2] it was 32 µM; in the data set with Enterococcus faecalis, > 250 µM; with Staphylococcus aureus [3], 4 µM.
With `CCCCCCCC[S+]1CCCC1.[I-]`, the HC20 in the data set on Erythrocyte is 125 µM. Moreover, the MIC in the data set with Escherichia coli, in the data set on Staphylococcus aureus [1], in the data set on Pseudomonas aeruginosa, against Staphylococcus aureus [2], in the data set with Enterococcus faecalis and with Staphylococcus aureus [3] was > 250 µM throughout.
Regarding `CCCCCCCCCC[N+]1(C)CCCC1.[Br-]`, in the data set with Erythrocyte, the HC20 was found to be 250 µM. The MIC in the data set with Escherichia coli, in the data set on Staphylococcus aureus [1], in the data set with Pseudomonas aeruginosa, with Staphylococcus aureus [2], in the data set on Enterococcus faecalis and in the data set on Staphylococcus aureus [3] was > 250 µM throughout.
On to `CCCCCCCCCCC[N+]1(C)CCCC1.[Br-]`, for which the HC20 with Erythrocyte was found to be 125 µM. Moreover, the MIC in the data set on Escherichia coli is > 250 µM; in the data set with Staphylococcus aureus [1] it was 125 µM; with Pseudomonas aeruginosa, > 250 µM; against Staphylococcus aureus [2], > 250 µM; in the data set with Enterococcus faecalis it was > 250 µM; with Staphylococcus aureus [3], 125 µM.
Turning to `CCCCCCCCCCCCCCCCCC[S+]1CCCC1.[I-]`, the HC20 in the data set on Erythrocyte stood at 16 µM. The MIC with Escherichia coli was 63 µM; in the data set with Staphylococcus aureus [1] it was 1 µM; in the data set with Pseudomonas aeruginosa, 250 µM; against Staphylococcus aureus [2], 8 µM; in the data set on Enterococcus faecalis, > 250 µM; in the data set on Staphylococcus aureus [3], 4 µM.
On to `C(CCCCC[S+]1CCCC1)CCCC[S+]1CCCC1.[I-].[I-]`, for which the HC20 in the data set with Erythrocyte was 125 µM. For the same compound, the MIC with Escherichia coli is > 250 µM; with Staphylococcus aureus [1] it was 250 µM; with Pseudomonas aeruginosa, > 250 µM; in the data set on Staphylococcus aureus [2], > 250 µM; in the data set on Enterococcus faecalis, > 250 µM; in the data set on Staphylococcus aureus [3], 250 µM.
In the case of `CCCCCCCC[N+]1(C)CCCC1.[Br-]`, the HC20 in the data set with Erythrocyte turned out to be 125 µM. In addition, the MIC in the data set with Escherichia coli, in the data set with Staphylococcus aureus [1], in the data set with Pseudomonas aeruginosa, with Staphylococcus aureus [2], with Enterococcus faecalis and in the data set on Staphylococcus aureus [3] was > 250 µM each time.
On to `CCCCCCCCCCCCC[N+]1(C)CCCC1.[Br-]`, for which, in the data set with Erythrocyte, the HC20 turned out to be 63 µM. Moreover, the MIC is > 250 µM in the data set with Escherichia coli; 8 µM in the data set on Staphylococcus aureus [1]; > 250 µM in the data set with Pseudomonas aeruginosa; 63 µM in the data set on Staphylococcus aureus [2]; > 250 µM with Enterococcus faecalis; 16 µM in the data set with Staphylococcus aureus [3].
For the compound `C(CCCCCC[S+]1CCCC1)CCCCC[S+]1CCCC1.[I-].[I-]`, the HC20 with Erythrocyte worked out at 250 µM. Moreover, the MIC is > 250 µM with Escherichia coli; 250 µM with Staphylococcus aureus [1]; > 250 µM with Pseudomonas aeruginosa; > 250 µM in the data set on Staphylococcus aureus [2]; > 250 µM with Enterococcus faecalis; 250 µM with Staphylococcus aureus [3].
With `CCCCCCCCCCC[S+]1CCCC1.[I-]`, the HC20 in the data set on Erythrocyte worked out at 125 µM. For the same compound, the MIC with Escherichia coli is > 250 µM; in the data set on Staphylococcus aureus [1], 125 µM; with Pseudomonas aeruginosa, > 250 µM; against Staphylococcus aureus [2] it was 250 µM; with Enterococcus faecalis it was > 250 µM; in the data set with Staphylococcus aureus [3] it was 250 µM.
In the case of `CCCCCCCCCCCCCCCCCC[N+]1(C)CCCC1.[Br-]`, in the data set on Erythrocyte, the HC20 stood at 16 µM. Also, the MIC in the data set with Escherichia coli is 63 µM; in the data set with Staphylococcus aureus [1], 2 µM; in the data set on Pseudomonas aeruginosa, 250 µM; against Staphylococcus aureus [2] it was 8 µM; with Enterococcus faecalis, > 250 µM; in the data set with Staphylococcus aureus [3] it was 4 µM.
Consider `CCCCCCCCCCCCC[S+]1CCCC1.[I-]`, for which the HC20 in the data set with Erythrocyte was determined as 63 µM. Also, the MIC in the data set on Escherichia coli is > 250 µM; in the data set on Staphylococcus aureus [1], 8 µM; in the data set with Pseudomonas aeruginosa it was > 250 µM; with Staphylococcus aureus [2], 125 µM; in the data set on Enterococcus faecalis, > 250 µM; in the data set with Staphylococcus aureus [3] it was 32 µM.
`CCCCCCCCCC[S+]1CCCC1.[I-]`: the HC20 in the data set with Erythrocyte was determined as 125 µM. In addition, the MIC was > 250 µM with Escherichia coli; 250 µM in the data set on Staphylococcus aureus [1]; > 250 µM in the data set on Pseudomonas aeruginosa; > 250 µM against Staphylococcus aureus [2]; > 250 µM in the data set with Enterococcus faecalis; 250 µM in the data set with Staphylococcus aureus [3].
For the compound `C[N+]1(CCCCCCCC[N+]2(C)CCCC2)CCCC1.[Br-].[Br-]`, the HC20 with Erythrocyte was 125 µM. The MIC in the data set with Escherichia coli, in the data set with Staphylococcus aureus [1], with Pseudomonas aeruginosa, in the data set with Staphylococcus aureus [2], with Enterococcus faecalis and in the data set with Staphylococcus aureus [3] was > 250 µM in each case.
As for `CCCCCCCCCCCCCCCC[S+]1CCCC1.[I-]`, in the data set with Erythrocyte, the HC20 stood at 16 µM. For the same compound, the MIC is 125 µM in the data set with Escherichia coli; 2 µM with Staphylococcus aureus [1]; > 250 µM in the data set with Pseudomonas aeruginosa; 8 µM with Staphylococcus aureus [2]; > 250 µM with Enterococcus faecalis; 4 µM in the data set on Staphylococcus aureus [3].

These data come from ChEMBL document CHEMBL4706678, “Trivalent sulfonium compounds (TSCs): Tetrahydrothiophene-based amphiphiles exhibit similar antimicrobial activity to analogous ammonium-based amphiphiles” (Bioorg Med Chem Lett, 2021).
